Read-outs that look alike come from different tables or passages of the source.
Assays:
[1] = target: T1, human 5-HT1A-serotonergic receptor (Homo sapiens, UniProt P08908); assay: Radioligand binding to recombinant 5-HT1A receptors ([3H]8-OH-DPAT, HeLa cell membranes); conditions: 1 nM [3H]8-OH-DPAT; Ki from IC50 by Cheng & Prusoff; read-out: Ki, binding affinity for 5-HT1A receptors
T1 construct: expressed in transfected cells; host or cells: HeLa (human), stably transfected; membrane preparation
T1 sequence (P08908 1-422): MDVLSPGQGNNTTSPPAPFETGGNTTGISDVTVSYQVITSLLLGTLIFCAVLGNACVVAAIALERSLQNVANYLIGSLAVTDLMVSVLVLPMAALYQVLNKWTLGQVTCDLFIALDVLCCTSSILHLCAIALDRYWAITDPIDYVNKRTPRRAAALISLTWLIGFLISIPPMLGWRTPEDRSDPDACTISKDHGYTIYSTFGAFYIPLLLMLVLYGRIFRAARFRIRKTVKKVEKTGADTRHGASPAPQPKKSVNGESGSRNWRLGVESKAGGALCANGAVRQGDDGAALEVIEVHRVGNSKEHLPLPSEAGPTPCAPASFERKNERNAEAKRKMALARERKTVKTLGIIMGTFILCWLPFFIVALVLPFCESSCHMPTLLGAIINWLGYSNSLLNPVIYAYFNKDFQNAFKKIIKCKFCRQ
Method: Genomic clone coding for the human 5-HT1A-serotonergic receptor was stably transfected in a human cell line (HeLa). HeLa cells were grown as monolayers in Dulbecco's modified Eagle medium (DMEM), containing 10% foetal bovine serum, gentamycin (0.1 mg/ml) and 5% carbon dioxide, at 37° C. The cells were detached from the growth flask at 95% confluence by a cell scraper and were lysed in cold 5 mM Tris and 5 mM EDTA buffer (pH 7.4). The homogenates were centrifuged at 40000×g×20 minutes and the pellets were resuspended in a small volume of cold 5 mM Tris and 5 mM EDTA buffer (pH 7.4) and immediately frozen and stored at −70° C. until use. On the day of experiment, the cell membranes were resuspended in incubation buffer: 50 mM Tris HCl (pH 7.4), 2.5 mM MgCl2, […] (Fargin et al., Nature 335, 358-360, 1988). The membranes were incubated in a final volume of 1 ml for 30 minutes at 30° C. with 1 nM [^3H]8-OH-DPAT, in the absence or presence of the test compounds. Non-specific binding was determined in the presence of 10 μM 5-HT. Incubation was stopped by addition of cold Tris-HC1 buffer and rapid filtration through a 0.2%-polyethyleneimine-pretreated Whatman-GF/B or Schleicher-&-Schuell-GF52 filter.
The affinities of the tested compounds were evaluated as inhibition of specific binding of the radioligand to 5-HT1A receptors (IC50) by using the non-linear curve-fitting program Allfit (De Lean et al., Am. J. Physiol. 235, E97-E102 (1978). The IC50 value was converted to an affinity constant (Ki) by the equation of Cheng & Prusoff (Cheng Y. C., Prusoff W. H., Biochem. Pharmacol. 22, 3099-3108 (1973)).

[2] = target: T2, 5-HT1A receptors (Rattus norvegicus, UniProt P19327); assay: Inhibition of stereotypy (rhythmic forepaw treading) induced by 8-OH-DPAT in rats (post-synaptic antagonism); type: in vivo; conditions: for % Inhibition of forepaw treading, 1 h / % Inhibition of forepaw treading, 4 h: 10 mg/kg p.o.; for % Inhibition of forepaw treading, 1 h: given 1 h before 8-OH-DPAT (1 mg/kg s.c.); for % Inhibition of forepaw treading, 4 h: given 4 h before 8-OH-DPAT (1 mg/kg s.c.)
T2 construct: stereotyped forepaw treading induced in rats by subcutaneous injection of 8-OH-DPAT; from tissue; host or cells: whole animal (male Sprague-Dawley rats), endogenous post-synaptic receptors
T2 sequence (P19327 1-422): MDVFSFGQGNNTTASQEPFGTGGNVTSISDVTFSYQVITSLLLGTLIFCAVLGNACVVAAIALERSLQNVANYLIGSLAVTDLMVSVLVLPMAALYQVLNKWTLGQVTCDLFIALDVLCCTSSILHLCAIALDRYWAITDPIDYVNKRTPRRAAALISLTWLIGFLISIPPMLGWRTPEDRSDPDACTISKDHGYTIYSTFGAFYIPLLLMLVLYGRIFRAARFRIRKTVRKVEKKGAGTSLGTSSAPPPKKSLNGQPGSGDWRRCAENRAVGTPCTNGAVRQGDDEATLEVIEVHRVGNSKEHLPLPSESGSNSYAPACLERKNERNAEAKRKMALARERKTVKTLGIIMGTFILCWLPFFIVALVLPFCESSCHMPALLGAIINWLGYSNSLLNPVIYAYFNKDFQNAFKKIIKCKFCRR
Method: The inhibitory effect of 5-HT1A-receptor antagonists on stereotyped forepaw treading induced in rats by subcutaneous injection of 8-OH-DPAT was evaluated by the method of Tricklebank (Tricklebank et al., Eur. J. Pharmacol., 117: 15, 1985) with minor modifications as described below.
Male Sprague-Dawley rats[Crl: CD® (SD) IGS BR] weighing 150-175 g from Charles River Italia were used. The animals were housed with free access to food and water and maintained on a forced 12-hour-light/12-hour-dark cycle at 22-24° C. of temperature. On the day of the experiment, the rats were placed singly in clear plastic containers, 10-15 minutes before administration of the vehicle or compounds to be tested. For evaluation of antagonistic activity after oral administration, the compounds were administered 1 and 4 hours before induction of stereotypy by 8-OH-DPAT (1 mg/kg subcutaneously). Observation sessions last 30 seconds and were begun 3 minutes after 8-OH-DPAT treatment and repeated every 3 minutes over a period of 15 minutes.
The appearance of the symptom induced by postsynaptic stimulation of 5-HT1A receptors was noted, and the intensity was scored using an intensity scale in which: 0=absent, 1=equivocal, 2=present and 3=intense. Behavioural scores for treated rats were accumulated throughout the observation time (5 observation periods) and expressed as mean values of 4 rats/dose. Change in mean values of treated animals in comparison with control (vehicle) group, expressed as per-cent inhibition, were used to quantify the antagonistic activity.

[3] = tested on: rhythmic bladder-voiding contractions in anaesthetised rats; assay: Rhythmic bladder-voiding contractions induced by bladder filling in anaesthetised rats; type: in vivo, rat; conditions: intravenous administration; for ED50: Rattus norvegicus
Method: Female Sprague-Dawley rats weighing 225-275 g (Crl: CD® (SD) IGS BR, Charles River Italia) were used. The animals were housed with free access to food and water and maintained on a forced 12-hour alternating light-dark cycle at 22-24° C. for at least one week, except during the experiment. The activity on rhythmic bladder voiding contractions was evaluated according to the method of Dray (Dray J., Pharmacol. Methods, 13:157, 1985), with some modifications as in Guarneri (Guarneri, Pharmacol. Res. 27:173, 1993). Briefly, rats were anaesthetised by subcutaneous injection of 1.25 g/kg (5 ml/kg) urethane, after which the urinary bladder was catheterised via the urethra using PE 50 polyethylene tubing filled with physiological saline. The catheter was tied in place with a ligature around the external urethral orifice and was connected to conventional pressure transducers (Statham P23 ID/P23 XL). […] The bladder was then filled via the recording catheter by incremental volumes of warm (37° C.) saline until reflex bladder-voiding contractions occurred (usually 0.8-1.5 ml). For intravenous injection of bioactive compounds, PE 50 polyethylene tubing filled with physiological saline was inserted into the jugular vein.
From the cystometrogram, the number of contractions recorded 15 minutes before (basal values) and after treatment, as well as the mean amplitude of these contractions (mean height of the peaks in mmHg), was evaluated.
Since most compounds produced an effect that was relatively rapid in onset and lead to a complete cessation of bladder contractions, bioactivity was conveniently estimated by measuring the duration of bladder quiescence (i.e., the length of the time during which no contractions occured). The number of tested animals showing a reduction in the number of contractions higher than 30% of that observed in the basal period was also recorded.
To compare the potency of the tested compounds for inhibiting the bladder voiding contractions, equieffective doses that result in the disappearance of contractions for a time of 10 minutes (ED10min) were computed by means of linear regression using the least square method. The extrapolated doses which induces a reduction in the number of contractions greater than 30% in 50% of the treated rats (ED50) was evaluated by the method of Bliss (Bliss C. I., Quart J. Pharm. Pharmacol. 11, 192-216, 1938).
Data represent the ED10min values (the extrapolated dose inducing 10 minutes of disappearance of the contractions), the ED50 (frequency) values (the extrapolated doses inducing a reduction of the number of contractions >30% in 50% of treated rats), and the ED50 (amplitude) values (the extrapolated doses inducing a 30% reduction of amplitude of the contractions in 50% of treated rats).

[4] = urethane-anaesthetised female rats, read-out: ED50 (frequency) (extrapolated dose inducing a reduction of the number of contractions >30% in 50% of treated rats)
[5] = urethane-anaesthetised female rats

| SMILES | Ki [1] | % Inhibition of forepaw treading, 1 h [2] | % Inhibition of forepaw treading, 4 h [2] | ED50 [3, 4] | ED10 min (extrapolated dose inducing 10 minutes of disappearance of the contractions) [3, 5] | inhibition of stereotypy induced by 8-OH-DPAT (in words) ([2]; oral administration) | ED50 ([3]; n.a. = not active, no significant reduction of the height of the peaks, read-out: ED50 (amplitude) (extrapolated dose inducing a 30% reduction of amplitude of the contractions in 50% of treated rats)) |
| --- | --- | --- | --- | --- | --- | --- | --- |
| CC#CC(O)C(CCN1CCN(c2cccc3c2OCCO3)CC1)c1ccccc1 (stereo not drawn) [Example 31, 1-[5-(2,3-Dihydro-1,4-benzodioxinyl)]-4-(4-hydroxy-3-phenylhept-5-ynyl)piperazine] | 2.71 nM | 60% | 18% | – | – | – | – |
| COc1ccccc1N1CCN(CC[C@H](c2ccccc2F)[C@@H](OC(C)=O)C2CCCCC2)CC1 (racemic) [Example 45, (RS,SR) 1-[4-Acetoxy-4-cyclohexyl-3-(2-fluorophenyl)butyl]-4-(2-methoxyphenyl)piperazine] | 0.54 nM | 100% | 81% | 0.127 mg/kg | 0.584 mg/kg | potent and long-lasting inhibition | – |
| COc1ccccc1N1CCN(CC[C@H](c2ccccc2F)[C@@H](OC(N)=O)C2CCCCC2)CC1 (racemic) [Example 48, (RS,SR) 1-[4-Aminocarbonyloxy-4-cyclohexyl-3-(2-fluorophenyl)butyl]-4-(2-methoxyphenyl)piperazine] | 0.36 nM | 90% | 74% | – | – | – | – |
| CN1CC[C@]23c4c5ccc(O)c4O[C@H]2[C@@H](O)C=C[C@H]3[C@H]1C5 [Morphine] | – | – | – | 0.03 mg/kg | 0.05 mg/kg | – | – |
| CCNC(=O)O[C@@H](C1CCCCC1)[C@H](CCN1CCN(c2ccccc2OC)CC1)c1ccccc1F (racemic) [Example 47, (RS,SR) 1-[4-Cyclohexyl-4-ethylaminocarbonyloxy-3-(2-fluorophenyl)butyl]-4-(2-methoxyphenyl)piperazine] | 0.85 nM | 56% | 58% | – | – | – | – |
| COc1cc(F)ccc1N1CCN(CCC(c2ccccc2C#N)C(O)C2CCCCC2)CC1 (stereo not drawn) [Example 16, 1-[3-(2-Cyanophenyl)-4-cyclohexyl-4-hydroxybutyl]-4-(4-fluoro-2-methoxyphenyl)piperazine] | 0.9 nM | 40% | 17% | – | – | – | – |
| C=CC(O)C(CCN1CCN(c2cccc3c2OCCO3)CC1)c1ccccc1OC(F)(F)F (stereo not drawn) [Example 7, 1-[5-(2,3-Dihydro-1,4-benzodioxinyl)]-4-[4-hydroxy-3-(2-trifluoromethoxyphenyl)hex-5-enyl]piperazine] | 7.27 nM | – | – | – | – | – | – |
| CCN(CC)CC#CCOC(=O)C(O)(c1ccccc1)C1CCCCC1 (stereo not drawn) [Oxybutynin] | – | – | – | > 10 mg/kg | 7.77 mg/kg | – | 0.24 mg/kg |
| COC(C1CCCCC1)C(CCN1CCN(c2ccccc2OCC(F)(F)F)CC1)c1ccccc1F (stereo not drawn) [Example 1, 1-[4-Cyclohexyl-3-(2-fluorophenyl)-4-methoxybutyl]-4-[2-(2,2,2-trifluoroethoxy)phenyl]piperazine] | 1.45 nM | – | – | – | – | – | – |
| CC(C)=CC(O)C(CCN1CCN(c2cccc3c2OCCO3)CC1)c1ccccc1 (stereo not drawn) [Example 35, 1-[5-(2,3-Dihydro-1,4-benzodioxinyl)]-4-(4-hydroxy-6-methyl-3-phenylhept-5-enyl)piperazine] | 1.47 nM | – | – | – | – | – | – |
| C#CCOC(C1CCCCC1)C(CCN1CCN(c2ccc(F)cc2OC)CC1)c1ccccc1 (stereo not drawn) [Example 24, 1-(4-Cyclohexyl-3-phenyl-4-propargyloxybutyl)-4-(4-fluoro-2-methoxyphenyl)piperazine] | 0.64 nM | – | – | – | – | – | – |

Reference: US20040072839A1, “1-Phenylalkylpiperazines” (priority 2002, published 2004)
